# In US8748466B2, “Isoxazole derivatives useful as antibacterial agents” (Pfizer Inc., priority 2011, dated 2014):
# Like-named read-outs stand apart in the source and are kept apart here.
# Columns and labels:
# [1] = test system: Acinetobacter baumannii/haemolyticus: Multidrug-resistant clinical isolate AB-3167; experiment: MIC determination (CLSI), AB-3167; type: cell-based; conditions: overnight incubation, duplicate, lower of the two values reported
# Method: (§1) The in vitro antibacterial activity of compounds described in the Examples was evaluated by minimum inhibitory concentration (MIC) testing according to Clinical and Laboratory Standards Institute (CLSI). See: Clinical and Laboratory Standards Institute. Methods for Dilution Antimicrobial Susceptibility Tests for Bacteria that Grow Aerobically; Approved Standard-Eighth Edition. CLSI document M7-A8 [ISBN 1-56238-689-1]. Clinical and Laboratory Standards Institute, 940 West Valley Road, Suite 1400, Wayne, Pa. 19087-1898 USA, 2006; also Clinical and Laboratory Standards Institute. Performance Standards for Antimicrobial Susceptibility Testing; Twentieth Informational Supplement. CLSI document M100-S20 [ISBN1-56238-716-2]. Clinical and Laboratory Standards Institute.
# (§2) The MIC determination is a standard laboratory method for evaluating the antibacterial activity of a compound. The MIC represents the lowest drug concentration that inhibits visible growth of bacteria following overnight incubation. […] Typically, the drug concentration range is broken down into 2-fold increments (e.g., 0.06 μg/mL, 0.12 μg/mL. 0.25 μg/mL, 0.50 μg/mL, 1.0 μg/mL, etc.) and the various drug concentrations are all individually incubated overnight with approximately the same number of bacteria. The MIC is then determined by visually inspecting the drug effect at each concentration, and identifying the lowest drug concentration that has inhibited bacterial growth as compared to the drug free control. Typically, bacteria continue to grow at drug concentrations lower than the MIC and don't grow at concentrations at and above the MIC.
# (§3) The MIC values described in Tables 4 and 5 below were derived from assays wherein each test compound was evaluated in duplicate. In cases where the duplicate values varied by 0-2-fold, the lower of the two values was reported below. Generally speaking, if the duplicate values varied by more than 2-fold, the assay was considered non-valid and was repeated until the variation between duplicate runs was 2-fold. In line with the CLSI guidelines referred to above, both control organisms and reference compounds were utilized in each MIC assay to provide proper quality control. MIC values generated with these control organisms and reference compounds were required to fall within a defined range for the assay to be considered valid and be included herein. Those skilled in the art will recognize that MIC values can and do vary from experiment to experiment. Generally speaking, it should be recognized that MIC values often vary +/−2-fold from experiment to experiment. While a single MIC is reported for each compound and each microorganism, the reader should not conclude that each compound was only tested once. Several of the compounds were subjected to multiple tests. The data reported in Tables 4 and 5 is reflective of the compound's relative activity and different MICs may have been generated on these occasions in line with the guidelines described above.
# (§4) The following bacterial strains were used in these MIC determinations:
# 3) Acinetobacter baumannii/haemolyticus: Multidrug-resistant clinical isolate labeled as AB-3167 in Tables 4 and 5;
# [2] = test system: Escherichia coli EC-1: VOGEL, mouse virulent; experiment: MIC determination (CLSI), EC-1; type: cell-based; conditions: read-out: EC-1 MIC
# Method: as §1, §2, §3, §4
# 2) Escherichia coli EC-1: VOGEL, mouse virulent labeled as EC-1 in Tables 4 and 5;
# [3] = target: T1, Pseudomonas aeruginosa LpxC enzyme (Pseudomonas aeruginosa, UniProt P47205); experiment: LpxC enzyme IC50 assay (PA LpxC enzyme IC50), BioTrove RapidFire mass spectrometry; type: biochemical
# T1 construct: made in house; host or cells: E. coli
# T1 sequence (P47205 1-303): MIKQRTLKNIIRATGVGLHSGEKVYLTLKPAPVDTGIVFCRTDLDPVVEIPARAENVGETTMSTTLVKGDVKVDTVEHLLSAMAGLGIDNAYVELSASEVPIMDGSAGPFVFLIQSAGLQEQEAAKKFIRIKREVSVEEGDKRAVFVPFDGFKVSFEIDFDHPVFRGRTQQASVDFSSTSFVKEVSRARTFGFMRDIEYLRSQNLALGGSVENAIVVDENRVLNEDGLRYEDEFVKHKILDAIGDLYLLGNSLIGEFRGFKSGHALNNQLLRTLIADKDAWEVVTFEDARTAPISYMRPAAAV
# Method: In order to assess the compounds biological activity selected in vitro assays were conducted on selected compounds. One of the assays measured the compounds ability to disrupt the synthesis of lipopolysaccharide, LPS, which is a component of the outer membrane of Gram-negative bacteria. Disruption of this synthesis is lethal to the bacteria. The assay determined the compound's ability to inhibit LpxC, which is the first enzyme in the biosynthetic pathway for LPS (measured as IC50). Additionally, MICs (minimal inhibitory concentrations) were determined for several bacteria. The specific protocols are described below:
# A) IC50 Assay LpxC Enzyme from P. aeruginosa Labeled as PA LpxC Enzyme IC50):
# At the end of 1 hour, 5 ul of 1 N HCl was added to stop the enzyme reaction, the plates were centrifuged, and then processed with the BioTrove Rapidfire HTMS Mass Spectrometry System. A no-enzyme control was used in calculating the IC50 values from the percent conversion values.
# [4] = test system: Pseudomonas aeruginosa UC12120 (mouse virulent); experiment: MIC determination (CLSI), PA-UC12120; type: cell-based; conditions: UC12120, read-out: PA-UC12120 MIC
# Method: as §1, §2, §3, §4
# 1) Pseudomonas aeruginosa UC12120 (mouse virulent) labeled as PA-UC12120 in Tables 4 and 5;
# [5] = P. aeruginosa LpxC enzyme 0.1 nM, 25° C., 1 hour, pH 8.0, read-out: PA:IC50
SMILES,MIC [1] [µg/mL],MIC [2] [µg/mL],IC50 [3] [nM],MIC [4] [µg/mL],"IC50 [3, 5] [nM]"
"Cc1ccc(-c2cc(CCC(C)(C(=O)NO)S(C)(=O)=O)on2)cc1 (racemic) [Example 38, N-hydroxy-2-methyl-4-[3-(4-methylphenyl)isoxazol-5-yl]-2-(methylsulfonyl)butanamide]",> 64,8,2.9,1,–
"CC(CCc1cc(-c2ccc(F)cc2)no1)(C(=O)NO)S(C)(=O)=O (racemic) [Example 44, 4-[3-(4-fluorophenyl)isoxazol-5-yl]-N-hydroxy-2-methyl-2-(methylsulfonyl)butanamide]",> 64,16,–,1,3.8
"CC(CCc1cc(-c2ccncc2F)no1)(C(=O)NO)S(C)(=O)=O (racemic) [Example 37, 4-[3-(3-fluoropyridin-4-yl)isoxazol-5-yl]-N-hydroxy-2-methyl-2-(methylsulfonyl)butanamide]",> 64,> 64,–,16,52.4
"Cc1cc(-c2cc(CCC(C)(C(=O)NO)S(C)(=O)=O)no2)ccc1OC(F)F (racemic) [Example 22, 4-{5-[4-(difluoromethoxy)-3-methylphenyl]isoxazol-3-yl}-N-hydroxy-2-methyl-2-(methylsulfonyl)butanamide]",> 64,8,–,1,1.5
"COc1ccccc1OCc1cc(CCC(C)(C(=O)NO)S(C)(=O)=O)no1 (racemic) [Example 12, N-hydroxy-4-{5-[(2-methoxyphenoxy)methyl]isoxazol-3-yl}-2-methyl-2-(methylsulfonyl)butanamide]",> 64,> 64,–,> 64,37.4
"COc1ccccc1-c1cc(CCC(C)(C(=O)NO)S(C)(=O)=O)no1 (racemic) [Example 16, N-hydroxy-4-[5-(2-methoxyphenyl)isoxazol-3-yl]-2-methyl-2-(methylsulfonyl)butanamide]",> 64,> 64,–,16,40.5
"CCOC(=O)N(Cc1cc(CCC(C)(C(=O)NO)S(C)(=O)=O)no1)C(C)C (racemic) [Example 23, ethyl ({3-[4-(hydroxyamino)-3-methyl-3-(methylsulfonyl)-4-oxobutyl]isoxazol-5-yl}methyl)isopropylcarbamate]",> 64,> 64,–,> 64,> 100
"CC(CCc1cc(CC2(O)CCCCC2)on1)(C(=O)NO)S(C)(=O)=O (racemic) [Example 17, N-hydroxy-4-{5-[(1-hydroxycyclohexyl)methyl]isoxazol-3-yl}-2-methyl-2-(methylsulfonyl)butanamide]",> 64,> 64,–,> 64,> 100
"COc1ccc(-c2cc(CCC(C)(C(=O)NO)S(C)(=O)=O)on2)cc1OC (racemic) [Example 42, 4-[3-(3,4-dimethoxyphenyl)isoxazol-5-yl]-N-hydroxy-2-methyl-2-(methylsulfonyl)butanamide]",> 64,> 64,–,64,38.6
